Reference: patent publication US20230059487A1, “PHOTOSENSITIVE MATERIAL, TRANSFER FILM, MANUFACTURING METHOD OF CIRCUIT WIRING, MANUFACTURING METHOD OF TOUCH PANEL, AND PATTERN FORMING METHOD” (FUJIFILM Corporation, priority 2020, published 2023)
Read-outs that look alike come from different tables or passages of the source.

Legend:
[1] = Measurement of molar absorption coefficients ε365, ε313 and ε365/ε313 in acetonitrile; assay type: physicochemical
Excerpt: (Measurement and Evaluation of ε365 and ε365/ε313)
The ε365 and ε313 of the compound β are molar absorption coefficients measured by dissolving the compound β in acetonitrile. In a case where the compound β was insoluble in acetonitrile, a solvent for dissolving the compound β may be appropriately changed.

[2] = Measurement of pKa of compound β in ground state (acid titration); assay type: physicochemical
Excerpt: (Measurement of pKa of Compound β in Ground State)

[3] = molar absorption coefficient at 365 nm in acetonitrile

Question: Which “ε365 of Compound β” value [1, 3] does the source give for `Cc1c2ccccc2nc2ccccc12` [Example 9-Methylacridine, 9-Methylacridine] here?
Answer: 6300 (cm mol/L)^−1

Question: Which “ε365 of Compound β” value [1, 3] does the source give for `Cc1nccc2ccccc12` [Example B6, 1-Me-isoquinoline] here?
Answer: <10 (cm mol/L)^−1

Question: Which “ε365 of Compound β” value [1] does the source give for `c1ccc(-c2c3ccccc3nc3ccccc23)cc1` [Example 9-Phenylacridine, 9-Phenylacridine] here?
Answer: >10000

Question: And the “ε365 of Compound β” value ([1]; molar absorption coefficient at 365 nm)?
Answer: >10000

Question: And the “ε365 of Compound β” value [1, 3]?
Answer: >10000 (cm mol/L)^−1

Question: Which “pKa of Compound β in ground state” value [2] does the source give for `c1ccc2cnccc2c1` [Example B1, isoquinoline] here?
Answer: 4.69

Question: What about the “pKa of Compound β in ground state” value ([2]; compound β alone) of the same compound?
Answer: 4.69

Question: And the “pKa of Compound β in ground state” value ([2]; compound β alone, ground state)?
Answer: 4.69

Question: And the “pKa of Compound β in ground state” value ([2]; compound β in ground state)?
Answer: 4.69

Question: And the “pKa of Compound β in ground state” value ([2]; compound β, ground state)?
Answer: 4.69

Question: And the “pKa of Compound β in ground state” value ([2]; ground state)?
Answer: 4.69

Question: What about the “ε365 of Compound β” value [1, 3] of the same compound?
Answer: <10 (cm mol/L)^−1

Question: Which “ε365 of Compound β” value ([1]; molar absorption coefficient at 365 nm in acetonitrile, listed as 2,4-Dimethylquinoline) does the source give for `Cc1cc(C)c2ccccc2n1` [Example B12, 2,4-dimethylquinoline] here?
Answer: <10 (cm mol/L)^−1

Question: With `Cc1cc(C)c2c(C)cc(C)nc2c1` [2,4,5,7-Tetramethylquinoline] as the compound, how does the “ε365 of Compound β” value [1, 3] read?
Answer: <10 (cm mol/L)^−1

Question: For `Cc1cc(C)c2ccccc2n1` [2,4-Dimethylquinolme], which “ε365 of Compound β” value [1, 3] is on record?
Answer: <10 (cm mol/L)^−1

Question: For `Clc1ccccn1` [Example 2-Chloropyridine, 2-Chloropyridine], which “ε365 of Compound β” value [1, 3] is on record?
Answer: <10 (cm mol/L)^−1

Question: With `CCCCc1ncc(C)c2ccccc12` [Example 1-n-Butyl-4-methylisoquinoline, 1-n-Butyl-4-methylisoquinoline] as the compound, how does the “ε365 of Compound β” value [1, 3] read?
Answer: <10 (cm mol/L)^−1

Question: Which “ε365 of Compound β” value [1, 3] does the source give for `COc1cc(C)nc2ccccc12` [Example 2-Methyl-4-methoxyquinoline, 2-Methyl-4-methoxyquinoline] here?
Answer: <10 (cm mol/L)^−1

Question: Which “pKa of Compound β in ground state” value [2] does the source give for `c1ccc2nc3ccccc3cc2c1` [Example B3, acridine] here?
Answer: 4.67

Question: What about the “pKa of Compound β in ground state” value ([2]; compound β alone) of the same compound?
Answer: 4.67

Question: What about the “pKa of Compound β in ground state” value ([2]; compound β alone, ground state) of the same compound?
Answer: 4.67

Question: And the “pKa of Compound β in ground state” value ([2]; compound β in ground state)?
Answer: 4.67

Question: What about the “pKa of Compound β in ground state” value ([2]; compound β, ground state) of the same compound?
Answer: 4.67

Question: And the “pKa of Compound β in ground state” value ([2]; ground state)?
Answer: 4.67

Question: And the “ε365 of Compound β” value [1, 3]?
Answer: 4900 (cm mol/L)^−1

Question: For `CCCCc1nccc2ccccc12` [Example 1-n-Butylisoquinoline, 1-n-Butylisoquinoline], which “ε365 of Compound β” value [1, 3] is on record?
Answer: <10 (cm mol/L)^−1

Question: Which “pKa of Compound β in ground state” value [2] does the source give for `c1ccc2ncccc2c1` [Example B2, quinoline] here?
Answer: 4.15

Question: And the “pKa of Compound β in ground state” value ([2]; compound β alone)?
Answer: 4.15

Question: What about the “pKa of Compound β in ground state” value ([2]; compound β alone, ground state) of the same compound?
Answer: 4.15

Question: And the “pKa of Compound β in ground state” value ([2]; compound β in ground state)?
Answer: 4.15

Question: What about the “pKa of Compound β in ground state” value ([2]; compound β, ground state) of the same compound?
Answer: 4.15

Question: And the “pKa of Compound β in ground state” value ([2]; ground state)?
Answer: 4.15

Question: And the “ε365 of Compound β” value [1, 3]?
Answer: <10 (cm mol/L)^−1

Question: Which “ε365 of Compound β” value [1, 3] does the source give for `Nc1ccncc1` [Example 4-Aminopyridine, 4-Aminopyridine] here?
Answer: <100 (cm mol/L)^−1

Question: Which “ε365 of Compound β” value [1, 3] does the source give for `c1ccncc1` [Example B11, pyridine] here?
Answer: <10 (cm mol/L)^−1
